# Target: T1, PHEC27213 (PxLPMO1) (Podosphaera xanthii, UniProt A0A8E4PV92)
# T1 construct: gene SHLPMO1; mature protein, signal peptide removed (191 residues), C-terminal 6xHis tag kept, pET30b NdeI/XhoI, E. coli BL21-CodonPlus-RIL; start Met from NdeI site probably before His1
# Assay: MALDI-TOF-MS of reaction products
# Assay type: biochemical
# Settings: 1 mM ascorbic acid as reductant, 0.1 M sodium phosphate pH 7.0, 37 °C overnight, 1 μM enzyme; no copper addition told
# T1 sequence (A0A8E4PV92 entry or part of it): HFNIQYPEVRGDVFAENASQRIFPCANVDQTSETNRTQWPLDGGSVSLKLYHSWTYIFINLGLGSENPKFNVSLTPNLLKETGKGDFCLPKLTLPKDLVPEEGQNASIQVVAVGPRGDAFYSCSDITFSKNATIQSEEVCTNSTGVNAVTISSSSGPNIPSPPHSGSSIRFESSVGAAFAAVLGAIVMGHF
structure (smiles),measurement,value
"CC(=O)N[C@H]1[C@H](O[C@H]2[C@H](O)[C@@H](NC(C)=O)[C@H](O[C@H]3[C@H](O)[C@@H](NC(C)=O)[C@H](O[C@H]4[C@H](O)[C@@H](NC(C)=O)C(O)O[C@@H]4CO)O[C@@H]3CO)O[C@@H]2CO)O[C@H](CO)[C@@H](O[C@@H]2O[C@H](CO)[C@@H](O[C@@H]3O[C@H](CO)[C@@H](O[C@@H]4O[C@H](CO)[C@@H](O)[C@H](O)[C@H]4NC(C)=O)[C@H](O)[C@H]3NC(C)=O)[C@H](O)[C@H]2NC(C)=O)[C@@H]1O (stereo partly shown) [DP7, hepta-N-acetylchitoheptaose]",MALDI-TOF-MS of reaction products,"PHEC27213 was able to release, predominantly, DP5 oligosaccharides"

# Reference: article PMC8035642, “A haustorial‐expressed lytic polysaccharide monooxygenase from the cucurbit powdery mildew pathogen Podosphaera xanthii contributes to the suppression of chitin‐triggered immunity” (Molecular Plant Pathology, 2021)
